Patent US7759345B2, “Antitumoral derivatives of ET-743” (priority 2001, dated 2010)
Read-outs that look alike come from different tables or passages of the source.

How the values were obtained:
MDA-MB-231 = test: Inhibition of cells growth by colorimetric assay (SRB), MDA-MB-231; type: cell-based; details: for CC50 / GI50: Homo sapiens; for CC50: MDA-MB-231, 48 h, read-out: MB-231 LC50; for GI50: MDA-MB-231, read-out: MB-231 GI50; for GI50 / MB-231 TGI: 48 hours exposure
Description: (§1) 2°.—Inhibition of Cells Growth by Colorimetric Assay.
(§2) A colorimetric type of assay, using sulforhodamine B (SRB) reaction has been adapted for a quantitative measurement of cell growth and viability [following the technique described by Philip Skehan, et al. (1990), New colorimetric cytotoxicity assay for anticancer drug screening, J. Natl. Cancer Inst., 82:1107-1112]
(§3) This form of the assay employs 96 well cell culture microplates of 9 mm diameter (Faircloth, 1988; Mosmann, 1983). Most of the cell lines are obtained from American Type Culture Collection (ATCC) derived from different human cancer types.
(§4) Cells are maintained in RPMI 1640 10% FBS, supplemented with 0.1 g/l penicillin and 0.1 g/l streptomycin sulfate and then incubated at 37° C., 5% CO2 and 98% humidity. For the experiments, cells were harvested from subconfluent cultures using trypsin and resuspended in fresh medium before plating.
(§5) Cells are seeded in 96 well microtiter plates, at 5×10^3 cells per well in aliquots of 195 μl medium, and they are allowed to attach to the plate surface by growing in drug free medium for 18 hours. Afterward, samples are added in aliquots of 5 μl in a ranging from 10 to 10^−8 μg/ml, dissolved in DMSO/EtOH/PBS (0.5:0.5:99). After 48 hours exposure, the antitumor effect are measured by the SRB methodology: cells are fixed by adding 50 μl of cold 50% (wt/vol) trichloroacetic acid (TCA) and incubating for 60 minutes at 4° C. Plates are washed with deionized water and dried. One hundred μl of SRB solution (0.4% wt/vol in 1% acetic acid) is added to each microtiter well and incubated for 10 minutes at room temperature. Unbound SRB is removed by washing with 1% acetic acid. Plates are air dried and bound stain is solubilized with Tris buffer. Optical densities are read on a automated spectrophotometric plate reader at a single wavelength of 490 nm.
(§6) The values for mean+/−SD of data from triplicate wells are calculated. Some parameters for cellular responses can be calculated: GI=growth inhibition, TGI=total growth inhibition (cytostatic effect) and LC=cell killing (cytotoxic effect).
(§7) Obtained results may predict the usefulness of a certain drug as a potential cancer treatment. For this technique, compounds which show GI50 values smaller than 10 μg/ml are selected to continue with further studies. GI50's data allow to predict that not only could a drug be cystostatic, but also it could have a potential in terms of tumor reduction.

SK-MEL-28 = test: Inhibition of cells growth by colorimetric assay (SRB), SK-MEL-28; type: cell-based; details: for GI50 / CC50: Homo sapiens, SK-MEL-28, 48 h; for GI50: read-out: MEL-28 GI50
How it was run: (§8)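 48 h SRB cytotoxicity assay; compound range 10–10^−8 μg/ml; seeding 5×10^3 cells/well, 18 h pre-attachment; OD 490 nm; GI, TGI, LC from triplicate means ± SD.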

MCF-7 = test: Inhibition of cells growth by colorimetric assay (SRB), MCF-7; type: cell-based; details: for CC50 / GI50: Homo sapiens; for CC50: read-out: MCF LC50; for GI50: read-out: MCF GI50
Description: as §1, §2, §3, §4, §5, §6, §7

HT-29 = test: Inhibition of cells growth by colorimetric assay (SRB), HT-29; type: cell-based; details: for GI50 / LC50 (concentration for 50% cell killing): Homo sapiens, HT-29, 48 h; for GI50: read-out: HT-29 GI50
How it was run: as §8

A-549 = test: Inhibition of cells growth by colorimetric assay (SRB), A-549; type: cell-based; details: for GI50 / LC50 (concentration for 50% cell killing): Homo sapiens, A549, 48 h; for GI50: read-out: A-549 GI50
How it was run: as §8

A-498 = test: Inhibition of cells growth by colorimetric assay (SRB), A-498; type: cell-based; details: for A-498 TGI / GI50: 48 hours exposure; for LC50 / GI50: Homo sapiens; for LC50: A498, 48 h, read-out: A-498 LC50; for GI50: A498, read-out: A-498 GI50
Description: as §1, §2, §3, §4, §5, §6, §7

DU-145 = test: Inhibition of cells growth by colorimetric assay (SRB), DU-145; type: cell-based; details: for GI50 / CC50: Homo sapiens, DU-145, 48 h; for GI50: read-out: DU-145 GI50
How it was run: as §8

SW620 = test: Inhibition of cells growth by colorimetric assay (SRB), SW620; type: cell-based; details: for LC50 / GI50: Homo sapiens; for LC50: read-out: SW-620 LC50; for GI50: read-out: SW-620 GI50
Description: as §1, §2, §3, §4, §5, §6, §7

[1] = read-out: MEL-28 LC50, SRB assay, 48 hours exposure
[2] = read-out: HT-29 LC50, SRB assay, 48 hours exposure
[3] = read-out: A-549 LC50, SRB assay, 48 hours exposure
[4] = read-out: DU-145 LC50, SRB assay, 48 hours exposure

Description for Heart: (§9) Toxicity was asssessed by the methods reported in Toxicology in Vitro, 15 (2001) 571-577, J. Luber Narod et al.: “Evaluation of the use of in vitro methodolodies as tools for screening new compounds for potential in vivo toxicity”.
Description for Kidney: as §9
Description for Liver: as §9
Description for Myelo: as §9
Description for Skeletal: as §9

SMILES	Toxicity Data Myelo (Myelo)	Toxicity Data Liver (Liver)	Toxicity Data Heart (Heart)	CC50 (MDA-MB-231)	CC50 (MCF-7; MCF7, 48 h)	Toxicity Data Kidney (Kidney)	LC50 (A-498)	Toxicity Data Skeletal (Skeletal)	LC50 (SW620; SW-620, 48 h)	GI50 (MDA-MB-231; SRB assay)	MB-231 TGI (MDA-MB-231; SRB assay)	GI50 (SK-MEL-28; SRB assay, 48 hours exposure)	CC50 (SK-MEL-28; [1])	MEL-28 TGI (SK-MEL-28; SRB assay, 48 hours exposure)	MCF TGI (MCF-7; SRB assay, 48 hours exposure)	GI50 (HT-29; SRB assay, 48 hours exposure)	LC50 (concentration for 50% cell killing) (HT-29; [2])	HT-29 TGI (HT-29; SRB assay, 48 hours exposure)	LC50 (concentration for 50% cell killing) (A-549; [3])	A-549 TGI (A-549; SRB assay, 48 hours exposure)	also measured
COc1cc2c(cc1O)CCN[C@]21CS[C@@H]2c3c(OC(C)=O)c(C)c4c(c3[C@H](COC1=O)N1C2[C@H]2c3c(cc(C)c(OC)c3OC(=O)OC(C)(C)C)C[C@@H]([C@@H]1O)N2C)OCO4 (stereo partly drawn) [Compound 97]	1.77E-08	1.57E-08	9.63E-08	34.8 nM	11.6 nM	1.43E-08	9.28 nM	4.62E-09	9.28 nM												GI50 (MDA-MB-231; MB-231, SRB): 0.348 nM; MB-231 TGI (MDA-MB-231; MB-231, SRB): 6.96E-10; GI50 (SK-MEL-28; MEL-28, SRB, 48 hours exposure): 0.348 nM; CC50 (SK-MEL-28; read-out: MEL-28 LC50, MEL-28, SRB, 48 hours exposure): 3.48 nM; MEL-28 TGI (SK-MEL-28; MEL-28, SRB, 48 hours exposure): 9.28E-10; GI50 (MCF-7; MCF7, MCF, SRB, 48 hours exposure): 1.16 nM; MCF TGI (MCF-7; MCF, SRB, 48 hours exposure): 3.48E-09; HT-29 TGI (HT-29; HT-29, SRB, 48 hours exposure): 2.32E-09; GI50 (HT-29): 0.928 nM; LC50 (concentration for 50% cell killing) (HT-29; read-out: HT-29 LC50, HT-29, SRB, 48 hours exposure): 9.28 nM; A-549 TGI (A-549; A-549, SRB, 48 hours exposure): 9.28E-10; GI50 (A-549; A-549, SRB, 48 hours exposure): 0.348 nM; LC50 (concentration for 50% cell killing) (A-549; read-out: A-549 LC50, A-549, SRB, 48 hours exposure): 3.48 nM; A-498 TGI (A-498; A-498, SRB): 2.32E-09; GI50 (A-498; A-498, SRB): 0.58 nM; DU-145 TGI (DU-145; DU-145, SRB, 48 hours exposure): 3.48E-10; GI50 (DU-145; DU-145, SRB, 48 hours exposure): 0.232 nM; CC50 (DU-145; read-out: DU-145 LC50, DU-145, SRB, 48 hours exposure): 0.928 nM; GI50 (SW620; SW-620, SRB, 48 hours exposure): 0.58 nM; SW-620 TGI (SW620; SW-620, SRB, 48 hours exposure): 2.32E-09
COc1cc2c(cc1OC(=O)OC(C)(C)C)CCN[C@]21CS[C@@H]2c3c(OC(=O)OC(C)(C)C)c(C)c4c(c3[C@H](COC1=O)N1C2[C@H]2c3c(cc(C)c(OC)c3O)C[C@@H]([C@@H]1O)N2C)OCO4 (stereo partly drawn) [Compound 173]	4.98E-06	4.03E-08	1.19E-07	21.7 nM	109 nM	7.09E-08	21.7 nM	2.49E-06	21.7 nM	2.17 nM	7.61E-09	2.17 nM	10.9 nM	5.43E-09	9.78E-09	2.17 nM	9.78 nM	6.52E-09	10.9 nM	4.35E-09	GI50 (MCF-7; MCF7, 48 h): 3.26 nM; GI50 (A-549): 3.26 nM; GI50 (A-498; SRB assay): 2.17 nM; A-498 TGI (A-498; SRB assay): 4.35E-09; GI50 (DU-145; SRB assay, 48 hours exposure): 1.09 nM; CC50 (DU-145; [4]): 3.26 nM; DU-145 TGI (DU-145; SRB assay, 48 hours exposure): 2.17E-09; GI50 (SW620; SW-620, 48 h): 3.26 nM; SW-620 TGI (SW620; SRB assay, 48 hours exposure): 6.52E-09
COc1cc2c(cc1O)CCN[C@]21CS[C@@H]2c3c(OC)c(C)c4c(c3[C@H](COC1=O)N1C2[C@H]2c3c(cc(C)c(OC)c3O)C[C@@H]([C@@H]1O)N2C)OCO4 (stereo partly drawn) [Compound 182]	3.19E-08	3.98E-09	3.95E-08	8.17 nM	13.6 nM	1.26E-08	5.45 nM	1.49E-08	13.6 nM	0.272 nM	6.81E-10	0.409 nM	5.45 nM	1.36E-09	5.45E-09	0.272 nM	1.36 nM	1.09E-09	68.1 nM	1.36E-09	GI50 (MCF-7; MCF7, SRB assay, 48 hours exposure): 2.72 nM; GI50 (A-549; SRB assay, 48 hours exposure): 0.409 nM; GI50 (A-498; SRB assay): 0.409 nM; A-498 TGI (A-498; SRB assay): 1.36E-09; GI50 (DU-145; SRB assay, 48 hours exposure): 0.272 nM; CC50 (DU-145; [4]): 1.09 nM; DU-145 TGI (DU-145; SRB assay, 48 hours exposure): 4.09E-10; GI50 (SW620; SW-620, 48 h): 1.09 nM; SW-620 TGI (SW620; SRB assay, 48 hours exposure): 4.09E-09
